Test results from ChEMBL document CHEMBL5608169, “A chemical modification of a peroxisome proliferator-activated receptor pan agonist produced a shift to a new dual alpha/gamma partial agonist endowed with mitochondrial pyruvate carrier inhibition and antidiabetic properties” (Eur J Med Chem, 2024).
Values belong to the molecule of their own block, whether it stands above or below them. The source made the active and inactive calls. No cut-off for these calls is given here.

Tests used:
[1] = target: T1, Peroxisome proliferator-activated receptor delta (Homo sapiens, UniProt Q03181); test: Partial agonist activity at N-terminal Gal4-fused human PPARdelta LBD transfected in human HepG2 cells assessed as receptor transactivation incubated for 20 hrs by luciferase based luminometric assay; format: cell-based
T1 sequence (Q03181 whole entry): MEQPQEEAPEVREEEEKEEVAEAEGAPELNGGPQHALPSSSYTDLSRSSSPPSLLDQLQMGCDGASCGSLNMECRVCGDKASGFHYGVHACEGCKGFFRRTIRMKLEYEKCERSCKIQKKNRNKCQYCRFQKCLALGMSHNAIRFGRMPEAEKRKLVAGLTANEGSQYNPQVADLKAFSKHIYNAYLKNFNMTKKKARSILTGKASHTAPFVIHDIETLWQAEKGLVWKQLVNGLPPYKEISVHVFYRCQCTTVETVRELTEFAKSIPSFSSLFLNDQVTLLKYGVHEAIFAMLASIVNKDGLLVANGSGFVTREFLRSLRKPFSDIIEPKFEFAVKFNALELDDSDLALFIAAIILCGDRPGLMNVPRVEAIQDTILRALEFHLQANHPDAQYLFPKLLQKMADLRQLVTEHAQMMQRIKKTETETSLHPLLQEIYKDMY

Mus musculus [2] = test: Antihyperglycemic activity in STZ-induced diabetic Swiss albino mouse model assessed as fasting blood glucose at 30 mg/kg, po and measured immediately by glucose meter analysis (reference value: 365 +/-54.25 mg/dl); format: functional
Mus musculus [3] = test: Antihyperglycemic activity in STZ-induced diabetic Swiss albino mouse model assessed as fasting blood glucose at 30 mg/kg, po measured after 5 days by glucose meter analysis (reference value: […] +/- 63.77 mg/dl); format: functional; conditions: time 5 day
Mus musculus [4] = test: Antihyperglycemic activity in STZ-induced diabetic Swiss albino mouse model assessed as fasting blood glucose at 30 mg/kg, po measured after 10 days by glucose meter analysis (reference value: 435.2 +/-46.89 mg/dl); format: functional; conditions: time 10 day
Mus musculus [5] = test: Antihyperglycemic activity in STZ-induced diabetic Swiss albino mouse model assessed as fasting blood glucose at 30 mg/kg, po measured after 15 days by glucose meter analysis (reference value: 452.6 +/-48.94 mg/dl); format: functional; conditions: time 15 day
Mus musculus [6] = test: Antihyperglycemic activity in STZ-induced diabetic Swiss albino mouse model assessed as total cholesterol level at 30 mg/kg, po by biochemical analysis (reference value: 184.33 +/- […]); format: functional
Mus musculus [7] = test: Antihyperglycemic activity in STZ-induced diabetic Swiss albino mouse model assessed as high-density lipoprotein cholesterol level at 30 mg/kg, po by biochemical analysis (reference value: 43.33 +/-[…]); format: functional
Mus musculus [8] = test: Antihyperglycemic activity in STZ-induced diabetic Swiss albino mouse model assessed as low-density lipoprotein cholesterol level at 30 mg/kg, po by biochemical analysis (reference value: 113.33 +/- 0.35 mg/dl); format: functional
Mus musculus [9] = test: Antihyperglycemic activity in STZ-induced diabetic Swiss albino mouse model assessed as very low-density lipoprotein cholesterol level at 30 mg/kg, po by biochemical analysis (reference value: 27.77 +/- 0.15 mg/dl); format: functional
Mus musculus [10] = test: Antihyperglycemic activity in STZ-induced diabetic Swiss albino mouse model assessed as triglyceride level at 30 mg/kg, po by biochemical analysis (reference value: 139.33 +/- 0.88 mg/dl); format: functional
[11] = target: T2, Peroxisome proliferator-activated receptor gamma (Homo sapiens, UniProt P37231); test: Partial agonist activity at N-terminal Gal4-fused human PPARgamma LBD transfected in human HepG2 cells assessed as receptor transactivation incubated for 20 hrs by luciferase based luminometric assay; format: cell-based
T2 sequence (P37231 whole entry): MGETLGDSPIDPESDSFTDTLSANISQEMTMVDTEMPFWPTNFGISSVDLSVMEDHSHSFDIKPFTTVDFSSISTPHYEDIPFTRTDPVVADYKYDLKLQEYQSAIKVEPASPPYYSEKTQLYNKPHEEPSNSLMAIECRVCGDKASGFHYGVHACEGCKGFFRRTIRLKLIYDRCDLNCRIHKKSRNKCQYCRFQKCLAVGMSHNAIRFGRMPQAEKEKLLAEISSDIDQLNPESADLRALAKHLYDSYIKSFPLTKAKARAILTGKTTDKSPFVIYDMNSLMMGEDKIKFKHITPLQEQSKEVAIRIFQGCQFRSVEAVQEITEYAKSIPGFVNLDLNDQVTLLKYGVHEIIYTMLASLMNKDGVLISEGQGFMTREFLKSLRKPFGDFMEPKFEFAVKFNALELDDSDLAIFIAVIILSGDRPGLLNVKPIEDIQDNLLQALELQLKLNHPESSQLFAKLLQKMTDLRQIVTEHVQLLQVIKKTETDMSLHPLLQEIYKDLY

[12] = target: T3, Peroxisome proliferator-activated receptor alpha (Homo sapiens, UniProt Q07869); test: Partial agonist activity at N-terminal Gal4-fused human PPARalpha LBD transfected in human HepG2 cells assessed as receptor transactivation incubated for 20 hrs by luciferase based luminometric assay; format: cell-based
T3 sequence (Q07869 whole entry): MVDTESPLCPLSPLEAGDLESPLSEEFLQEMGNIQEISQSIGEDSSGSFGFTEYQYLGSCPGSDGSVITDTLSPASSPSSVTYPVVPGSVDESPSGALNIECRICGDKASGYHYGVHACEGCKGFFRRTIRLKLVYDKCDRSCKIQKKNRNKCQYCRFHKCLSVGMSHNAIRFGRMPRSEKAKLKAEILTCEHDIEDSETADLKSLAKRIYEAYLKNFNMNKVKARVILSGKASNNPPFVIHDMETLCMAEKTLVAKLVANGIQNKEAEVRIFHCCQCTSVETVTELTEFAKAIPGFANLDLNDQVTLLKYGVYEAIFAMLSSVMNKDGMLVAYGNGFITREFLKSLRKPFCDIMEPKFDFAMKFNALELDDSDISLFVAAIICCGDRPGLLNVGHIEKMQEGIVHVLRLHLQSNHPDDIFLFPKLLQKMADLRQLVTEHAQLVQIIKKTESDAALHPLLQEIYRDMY

HepG2 = test: Inhibition of lipid accumulation in oleic acid induced human HepG2 cells at 10 uM pretreated with oleic-acid for 24 hrs followed by compound addition and measured after 72 hrs by Oil Red O staining based analysis; format: functional, cell-based
C2C12 [13] = test: Inhibition of mitochondrial pyruvate carrier in mouse C2C12 cells assessed as increase of extracellular acidification rate at 10 uM incubated for 24 hrs by Seahorse XF pro analyzer; format: functional, cell-based
C2C12 [14] = test: Inhibition of mitochondrial pyruvate carrier in mouse C2C12 cells assessed as effect on oxygen consumption rate at 10 uM incubated for 24 hrs by Seahorse XF pro analyzer; format: functional, cell-based
C2C12 [15] = test: Inhibition of mitochondrial pyruvate carrier in mouse C2C12 cells assessed as effect on ATP production at 10 uM incubated for 24 hrs by Seahorse XF pro analyzer; format: functional, cell-based
C2C12 [16] = test: Inhibition of mitochondrial pyruvate carrier in mouse C2C12 cells assessed as increase in OCR/ECAR ratio at 10 uM incubated for 24 hrs by Seahorse XF pro analyzer; format: functional, cell-based

Structure (SMILES): CCc1ccc(CCOc2ccc(CC3SC(=O)NC3=O)cc2)nc1 (stereo not drawn) [PIOGLITAZONE]
Activity (Mus musculus [2]): 441.2 mg/dL | Activity (Mus musculus [3]): 351 mg/dL | Activity (Mus musculus [4]): 248 mg/dL | Activity (Mus musculus [5]): 224.2 mg/dL | Activity (Mus musculus [6]): 88.67 mg/dL | Activity (Mus musculus [7]): 19.67 mg/dL | Activity (Mus musculus [8]): 20.5 mg/dL | Activity (Mus musculus [9]): 19.33 mg/dL | Activity (Mus musculus [10]): 98.33 mg/dL

Structure (SMILES): C[C@@H](Oc1ccc(-c2cccc3ccccc23)cc1)C(=O)O
EC50 [12]: 2300 nM

Structure (SMILES): CN(CCOc1ccc(CC2SC(=O)NC2=O)cc1)c1ccccn1 (stereo not drawn)
inhibition (HepG2): Active | inhibition (C2C12 [13]): inactive | inhibition (C2C12 [14]): inactive | inhibition (C2C12 [15]): inactive | inhibition (C2C12 [16]): inactive

The next lines start with the values.

EC50 [1]: 1600 nM
Structure (SMILES): CCCc1c(OCCCOc2ccc(OCC(=O)O)cc2)ccc(C(C)=O)c1O

EC50 [11]: 11 µM | EC50 [12]: 183 nM
Structure (SMILES): CC[C@H](Oc1ccc(-c2cccc3ccccc23)cc1)C(=O)O.NC1CCCCC1

EC50 [12]: 1800 nM
Structure (SMILES): C[C@H](Oc1ccc(-c2cccc3ccccc23)cc1)C(=O)O

EC50 [11]: 10 µM | EC50 [12]: 460 nM
Structure (SMILES): CCC(Oc1ccc(-c2cccc3ccccc23)cc1)C(=O)O (racemic)

EC50 [11]: 7.3 µM | EC50 [12]: 1420 nM
Structure (SMILES): CC[C@@H](Oc1ccc(-c2cccc3ccccc23)cc1)C(=O)O.NC1CCCCC1
